According to ChEMBL document CHEMBL2086339 (J Med Chem, 2012):
In brackets after ≈: the same amount, converted by molar mass.

Columns and labels:
[1] = Cmax in Long Evans rat brain at 10 mg/kg, po; assay type: ADME, organism-based; parameters: dose 10 mg/kg, route oral
[2] = Cmax in Long Evans rat at 20 mg/kg, po; assay type: ADME, organism-based; parameters: dose 20 mg/kg, route oral; settings: in vivo
[3] = Intrinsic clearance in rat liver microsomes assessed per mg of protein at 1 uM by UPLC/TOF-MS analysis; assay type: ADME, Microsome; settings: read-out: CLH
[4] = Solubility of the compound at pseudo-thermodynamic equilibrium after 24 hrs by UPLC/UV/TOF-MS analysis at pH 7.4; assay type: physicochemical; settings: buffer
[5] = AUC (0 to infinity) in Long Evans rat at 20 mg/kg, po; assay type: ADME, organism-based; parameters: time infinity, dose 20 mg/kg, route oral; settings: plasma
[6] = Ratio of drug level in brain to plasma in Long Evans rat at 10 mg/kg, po; assay type: ADME, organism-based; parameters: dose 10 mg/kg, route oral; settings: read-out: BPR
[7] = Tmax in Long Evans rat at 20 mg/kg, po; assay type: ADME, organism-based; parameters: dose 20 mg/kg, route oral; settings: in vivo
[8] = Metabolic stability in rat plasma assessed as compound remaining at 250 uM after 3 hrs by LC-ESI-MS-MS analysis; assay type: ADME, cell-free; settings: read-out: Stability
[9] = Oral bioavailability in Long Evans rat at 20 mg/kg; assay type: ADME, organism-based; settings: in vivo

| Structure (SMILES) | solubility thermodynamic at 24 h [4] | other results |
| --- | --- | --- |
| O=C(CCCCN1CCCCC1)Nc1cc(-c2ccc(Cl)cc2)n[nH]1 | 182 µM (≈ 65.7 µg/mL) | – |
| COc1cccc(-c2cc(NC(=O)CCCCN3CCCCC3)[nH]n2)c1 | 213 µM (≈ 75.9 µg/mL) | – |
| COc1ccccc1-c1cc(NC(=O)CCCCN2CCCCC2)[nH]n1 | 178 µM (≈ 63.5 µg/mL) | – |
| O=C(CCCCN1CCCCC1)Nc1cc(-c2ccc(F)cc2)n[nH]1 | 237 µM (≈ 81.6 µg/mL) | – |
| O=C(CCCCN1CCCCC1)Nc1cc(-c2ccc(Br)cc2)n[nH]1 | 144 µM (≈ 58.4 µg/mL) | – |
| O=C(CCCCN1CCCCC1)Nc1cc(-c2ccncc2)n[nH]1 | 226 µM (≈ 74 µg/mL) | – |
| O=C(CCCCN1CCCCC1)Nc1cc(-c2ccc(C(F)(F)F)cc2)n[nH]1 | 157 µM (≈ 61.9 µg/mL) | – |
| O=C(CCCCN1CCCCC1)Nc1cc(-c2ccco2)n[nH]1 | 250 µM (≈ 79.1 µg/mL) | – |
| COc1ccc(-c2cc(NC(=O)CCCCN3CCC(C)CC3)n[nH]2)cc1 | 198 µM (≈ 73.4 µg/mL) | – |
| COc1ccc(-c2cc(NC(=O)CCCCN3CCOCC3)[nH]n2)cc1 | 176 µM (≈ 63.1 µg/mL) | – |
| COc1ccc(-c2cc(NC(=O)CCCCN3CCNC(=O)C3)[nH]n2)cc1 | 92 µM (≈ 34.2 µg/mL) | – |
| COc1ccc(-c2cc(NC(=O)CCCCN3CCC(C(N)=O)CC3)[nH]n2)cc1 | 184 µM (≈ 73.5 µg/mL) | – |
| COc1ccc(-c2cc(NC(=O)CCCCN3CCNC(=O)CC3)[nH]n2)cc1 | 117 µM (≈ 45.1 µg/mL) | – |

Continued, in another order:

| solubility thermodynamic at 24 h [4] | Structure (SMILES) | other results |
| --- | --- | --- |
| 170 µM (≈ 70.3 µg/mL) | COc1ccc(-c2cc(NC(=O)CCCCN3CCCN(C(C)=O)CC3)[nH]n2)cc1 | Cmax [1]: 3.7 ng/g; Cmax [2]: 180 nM; microsomal CLint at 1 µM [3]: 13 µL/min/mg; AUC(0-inf) [5]: 1.37 µM·h; Kp [6]: 0.38; Tmax [7]: 49.8 min; remaining at 3 h, 250 µM [8]: 55%; bioavailability [9]: 12% |
| 151 µM (≈ 64.6 µg/mL) | COc1ccc(-c2n[nH]c(NC(=O)CCCCN3CCCN(C(C)=O)CC3)c2C)cc1 | – |
| 128 µM (≈ 54.7 µg/mL) | COc1ccc(-c2cc(NC(=O)C(C)CCCN3CCCN(C(C)=O)CC3)[nH]n2)cc1 (stereo unspecified) | remaining at 3 h, 250 µM [8]: > 99% |
| 193 µM (≈ 79.8 µg/mL) | COc1ccc(-c2c[nH]c(NC(=O)CCCCN3CCCN(C(C)=O)CC3)n2)cc1 | – |
| 219 µM (≈ 78.1 µg/mL) | COc1ccc(-c2cc(NC(=O)CCCCN3CCCCC3)[nH]n2)cc1 | – |
| 188 µM (≈ 69.7 µg/mL) | COc1ccc(-c2n[nH]c(NC(=O)CCCCN3CCCCC3)c2C)cc1 | – |
| 133 µM (≈ 49.3 µg/mL) | COc1ccc(-c2cc(NC(=O)CCCCN3CCCCCC3)n[nH]2)cc1 | – |
| 176 µM (≈ 65.6 µg/mL) | COc1ccc(-c2cc(NC(=O)CCCCN3CCCOCC3)[nH]n2)cc1 | – |
| 153 µM (≈ 56.8 µg/mL) | COc1ccc(-c2cc(NC(=O)CCCCN3CCCNCC3)[nH]n2)cc1 | – |
